“Also recorded” adds a separate entry of the source.

The test system of data set [1] is SK-BR3 breast cancer cells. Nature of the data set: Cell viability assay (WST-1) in SK-BR3 breast cancer cells. The data set is classed as cell-based, human. As for the experimental part:
SK-BR3 breast cancer cells were plated on 96-well plates at density of 5×10^3 cells/well and maintained for 24 hrs. The cells were then incubated with varied concentrations of each compound for 48 hrs, followed by addition of Premix WST-1 Solution (Takara). Cell viability was estimated by measuring absorbance at 450 nm after 1 hr with a SPECTRAmax microplatereader.

Data set [2] concerns the target T1, ESX-Sur-2 interaction (Homo sapiens, UniProt Q9ULK4).
T1 construct: made in house
T1 sequence (Q9ULK4 352-625): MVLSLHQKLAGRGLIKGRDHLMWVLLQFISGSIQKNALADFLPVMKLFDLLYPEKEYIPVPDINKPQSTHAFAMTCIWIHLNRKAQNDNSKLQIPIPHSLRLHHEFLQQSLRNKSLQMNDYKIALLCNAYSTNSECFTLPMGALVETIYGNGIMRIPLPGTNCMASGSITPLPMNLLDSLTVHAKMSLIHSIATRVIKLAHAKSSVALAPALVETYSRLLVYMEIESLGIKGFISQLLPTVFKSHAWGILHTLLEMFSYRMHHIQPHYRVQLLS
Nature of the data set: Inhibition of the ESX-Sur-2 interaction in vitro (fluorescence of FITC-ESX129-145 with GST-Sur2352-625). Type of data set: binding. As for the experimental part: To monitor the ESX-DRIP130 interaction, we labeled ESX129-145 with fluorescein isothiocyanate (FITC; Pierce) at the Lys144 position and measured its fluorescence spectra upon adding the glutatathione-S′-transferase (GST) fusion of DRIP130352-625. ESX129-145 was synthesized by standard Fmoc chemistry (the NH2 terminus was capped by an acetyl group during the synthesis) and purified by HPLC. The peptide was then coupled with FITC at the Lys144 position in a conjugation buffer (100 mM carbonate-bicarbonate buffer, pH 9) in dark and purified by NAP-5 desalting column (Amersham). The labeled peptide was quantified by UV and visible absorbance.
GST-Sur-2352-625 was expressed and purified. Varied concentrations of the fusion protein were added to FITC-ESX129-145 (10 nM) in phosphate buffered saline containing 2% (v/v) ethanol, and the fluorescence spectra of FITC-ESX129-145 were measured by an ABI LS-50B Fluorescence Spectrometer (Ex: 490 nm). The dissociation constant of the interaction was estimated to be 12 μM through the emission perturbation at 522 nm.
To examine the effects of adamanolol on the interaction in vitro, the ethanol component of the binding buffer was replaced with an ethanolic solution of adamanolol. The fractions of FITC-ESX129-145 (10 nM) bound to 50 μM of GST-Sur-2352-625 were estimated by measuring fluorescence emission at 522 nm. ESX129-145 and pindolol were used as positive and negative controls, respectively.
In another series of derivatives (the R3 substituents in Table 1), the adamantane group of adamanolol was substituted (11a-d). […] The binding fractions were calculated on the basis of fluorescence spectra of FITC-ESX129-145 (152 nM) in presence of GST-Sur2352-625 (212 nM) and varied concentrations of each adamanolol derivative.

Data set [3] relates to NF-κB p65 activation domain. Briefly: Transcription reporter gene assay (GAL4 fusion, SEAP), NF-κB p65 activation domain. Type of data set: cell-based, human. To be noted: HEK293 cells, 20 μM, 10-hr incubation. As for the experimental part:
(§1) mammalian expression vectors, each encoding the activation domain of ESX, VP16, or NF-κB p65 fused with the GAL4 DNA-binding domain (amino acids 1-94), were used. Each expression construct was co-transfected to HEK293Tag human kidney cells together with a reporter plasmid in which the production of secreted alkaline phosphatase (SEAP) is under control of an IL2 promoter carrying five GAL4 binding sites. After 10-hr incubation with wrenchnolol (20 μM), an aliquot of the culture was assayed for SEAP activity.

Data set [4] deals with ESX activation domain. Briefly: Transcription reporter gene assay (GAL4 fusion, SEAP), ESX activation domain. The data set is classed as cell-based, human. To be noted: HEK293 cells, 20 μM, 10-hr incubation. As for the experimental part:
(§2) Mammalian expression vectors each encoding the activation domain of ESX, VP16, or NFκBp65 fused with the GAL4 DNA-binding domain were used. Each expression construct was co-transfected to HEK293Tag human kidney cells together with a reporter plasmid in which the production of secreted alkaline phosphatase (SEAP) is under control of an IL-2 promoter carrying five GAL4 binding sites. After a 24 hour incubation in the presence or absence of adamanolol, an aliquot of the culture was assayed for SEAP activity. The total amounts of transfected DNA were normalized.
as §1

For data set [5], the system named is VP16 activation domain. Briefly: Transcription reporter gene assay (GAL4 fusion, SEAP), VP16 activation domain. The data set is classed as cell-based. The conditions noted are these: HEK293 cells, 20 μM, 10-hr incubation. As for the experimental part: as §2, §1
The target of data set [6] is T2, Sur-2 (GST-Sur2352-625) (Homo sapiens, UniProt Q9ULK4).
T2 construct: made in house
T2 sequence (Q9ULK4 352-625): T1 sequence (Q9ULK4 352-625)
Nature of the data set: Fluorescence perturbation of fluorescein conjugate 9 by GST-Sur2352-625. The data set is classed as binding. To be noted: measured with fluorescein conjugate 9, emission at 522 nm. As for the experimental part:
(§3) HeLa cell nuclear extracts were prepared as described47 and incubated with a biotin conjugate of wrenchnolol (8) (100 μM) at 4° C. for 24 hrs. The samples were incubated with Neutravidin affinity resin (Pierce) at 4° C. for 2 hrs and extensively washed with PBS buffer containing 0.5% Nonidet P-40. The bound proteins were then separated by SDS/PAGE and analyzed by western blots with an antibody against human Sur-2 or by silver-staining. A=Ao+0.5.e([9]o+(([9]o+[P]oKd)2−4[9]o[P]o)0.5)
Where A and Ao are the values of fluorescence intensity of 9 in the presence or absence of GST-Sur2352-625, respectively, and .e is the differential fluorescence intensity of 1 μM of 9 in the presence of an infinite concentration of protein and in its absence. [9]o and [P]o are the total concentrations of 9 and protein added, respectively.
The fluorescein conjugate 9 also enabled evaluation of the Kd value of the interaction between wrenchnolol and Sur-2 in vitro. Shown in FIG. 22C are relative emission intensities of 9 at 522 nm (excitation: 490 nm) in the presence of varied concentrations of GST-Sur2352-625. When a GST fusion of Sur-2 protein (GST-Sur2352-625) was added to a solution of conjugate 9, the fluorescence intensity of 9 at 522 nm was decreased ([…]).

The subject of data set [7] is Her2. Nature of the data set: Her2 protein expression by western blot of cell lysates. Type of data set: cell-based, human. To be noted: SK-BR3 cells, 7 μM, 24 hrs; alpha-tubulin not reduced. The text has this: Sur-2 is a human homolog of […] elegans Sur-2, a protein of unknown function whose mutations suppress the phenotype of an activated ras mutation (Singh et al., 1995), and it has been linked to the transcription-activating function of the adenovirus E1A protein and the Elk-1 transcription factor. […] To test this, we designed a cell-permeable peptide that binds Sur-2 (referred to as TAT-ESX129-145). The design takes advantage of the binding affinity of ESX129-145 and the cell internalization property of the 11-aa peptide derived from the HIV TAT protein. We first examined whether TAT ESX129-145 reduces endogenous expression of the Her2 gene in three Her2-overexpressing breast cancer cell lines, SK-BR-3, MDA-MB-453, and […] (FIG. 4). Cells were incubated in the presence or absence of TAT-ESX129-145, and the protein levels of Her2 were examined by Western blot analyses of normalized amounts of cell lysates.
Her2-overexpressing SK-BR3 cells were treated by 7.3 μM of adamanolol for 24 hrs, and whole cell lysates were analyzed by western blots. […]
SK-BR3 cells were treated by 7 μM of wrenchnolol for 24 hrs, and whole cell lysates were analyzed by western blots. […]
(In western blotting, separated proteins are transferred to a membrane and probed.)

The nature of data set [8]: Solubility in neutral aqueous solution. The data set is classed as physicochemical. The conditions noted are these: amino group of the handle protonated. As for the experimental part:
When the amino group of the handle was protonated, wrenchnolol (7b) and its aminopropyl version (7a) became soluble up to ˜1 mM in neutral aqueous solution. The high water solubility enabled NMR analysis of these molecules in a buffered aqueous solution, and their proton signals were completely assigned through a combination of NOESY, DQF-COSY, and HOHAHA data sets (Table S1).

Data set [9] concerns the target T3, Sur-2 (Homo sapiens, UniProt Q9ULK4).
T3 construct: HeLa cell nuclear extracts were prepared as described47 and incubated with a biotin conjugate of wrenchnolol (8); endogenous in cells; host or cells: HeLa cell nuclear extracts
T3 sequence (Q9ULK4 1-1368): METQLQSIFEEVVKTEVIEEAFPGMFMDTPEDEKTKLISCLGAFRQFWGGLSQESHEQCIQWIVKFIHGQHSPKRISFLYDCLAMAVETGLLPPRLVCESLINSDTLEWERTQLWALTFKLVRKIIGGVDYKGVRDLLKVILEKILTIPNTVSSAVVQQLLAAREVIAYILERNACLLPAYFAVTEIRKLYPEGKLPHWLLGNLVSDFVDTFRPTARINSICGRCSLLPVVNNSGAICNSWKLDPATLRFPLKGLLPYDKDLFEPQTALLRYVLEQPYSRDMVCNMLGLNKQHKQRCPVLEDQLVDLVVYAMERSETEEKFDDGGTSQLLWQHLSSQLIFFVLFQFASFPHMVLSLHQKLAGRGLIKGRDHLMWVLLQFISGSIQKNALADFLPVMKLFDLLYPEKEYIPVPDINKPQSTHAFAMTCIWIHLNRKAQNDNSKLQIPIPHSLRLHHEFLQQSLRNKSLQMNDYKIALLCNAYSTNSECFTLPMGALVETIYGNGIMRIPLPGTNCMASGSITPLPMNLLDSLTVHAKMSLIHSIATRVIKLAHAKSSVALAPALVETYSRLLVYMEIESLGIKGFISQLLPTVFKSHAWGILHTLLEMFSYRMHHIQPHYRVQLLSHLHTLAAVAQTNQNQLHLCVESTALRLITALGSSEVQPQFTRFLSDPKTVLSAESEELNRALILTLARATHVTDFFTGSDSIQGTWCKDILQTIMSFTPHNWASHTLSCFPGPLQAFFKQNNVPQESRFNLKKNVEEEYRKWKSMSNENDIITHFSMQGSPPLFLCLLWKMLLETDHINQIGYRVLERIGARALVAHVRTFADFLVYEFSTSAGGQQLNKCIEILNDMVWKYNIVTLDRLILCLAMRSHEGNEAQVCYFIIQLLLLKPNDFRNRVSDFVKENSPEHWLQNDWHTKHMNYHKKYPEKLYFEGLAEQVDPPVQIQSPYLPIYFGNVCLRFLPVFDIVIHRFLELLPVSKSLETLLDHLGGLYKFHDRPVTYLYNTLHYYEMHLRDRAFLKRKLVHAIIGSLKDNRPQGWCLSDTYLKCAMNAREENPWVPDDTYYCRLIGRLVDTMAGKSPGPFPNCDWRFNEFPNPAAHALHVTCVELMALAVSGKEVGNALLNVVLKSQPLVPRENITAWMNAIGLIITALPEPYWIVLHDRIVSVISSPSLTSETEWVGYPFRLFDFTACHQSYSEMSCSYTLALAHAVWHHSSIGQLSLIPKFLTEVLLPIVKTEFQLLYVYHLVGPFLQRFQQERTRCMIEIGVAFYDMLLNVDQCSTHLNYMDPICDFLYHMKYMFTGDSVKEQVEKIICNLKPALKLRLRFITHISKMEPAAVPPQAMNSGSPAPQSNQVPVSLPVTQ
Nature of the data set: Sur-2 interaction of biotin conjugate in HeLa cell nuclear extracts (Neutravidin affinity, western blot). Type of data set: binding. To be noted: 100 μM, 4° C., 24 hrs. As for the experimental part:
as §3
To confirm the interaction of wrenchnolol with Sur-2 in a cellular context, a biotin conjugate of wrenchnolol (8) was synthesized (Scheme 1) and incubated with cell nuclear extracts. The bound proteins were purified through an avidin affinity column, separated on an SDS-PAGE gel, and analyzed by western blots with a Sur-2 antibody. […] One of the silver-stained bands matched the western-blotted band of Sur-2, while the identities of the other bands remained unknown. Sur-2 (also called DRIP130 or CRSP130) is a subunit of the human mediator complexes. The additional bands may include those of the other subunits copurified with Sur-2.

Data set [10] deals with MCF-7 Her18. Nature of the data set: Cell death in MCF7 cells stably transfected with the Her2 gene. The data set is classed as cell-based, human. To be noted: ectopic Her2 on a heterologous promoter. The text has this: In contrast to the Her2-overexpressing cells, MDA-MB-468, a breast cancer cell line with no detectable levels of Her2, was resistant to TAT-ESX129-145 (FIGS. 5A and 5B). […] The effects of TAT-ESX129-145 on an MCF7 cell line stably transfected with the Her2 gene were examined.

With `Cc1ccc(S(=O)(=O)n2ccc3c(OCC(O)CN(CCCCCN)C(=O)N4CCC(C5CCN(C(=O)C67CC8CC(CC(C8)C6)C7)CC5)CC4)cccc32)cc1` (stereo not drawn) [Compound 7b, Wrenchnolol], the IC50 – broadly, the midpoint of a concentration-inhibition curve – was determined as 6.9 µM in data set [1] (48 hrs incubation, WST-1) and 10 ± 1.5 µM in [2] (FITC-ESX129-145 (152 nM), GST-Sur2352-625 (212 nM)). Moreover, in data set [1] (compared with adamanolol), the “ability to kill SK-BR3 cells (biological activity, in words)” value is reported as “no less active than adamanolol”. The “inhibition of the ESX-Sur-2 interaction in vitro (in words)” value in data set [2] (in vitro fluorescence assay) is on record as “more strongly than adamanolol”. Moreover, the “effect on the NF-κB p65 activation domain” value in data set [3] is recorded as “much milder effects”. Further, the “ability of the ESX activation domain to activate the reporter gene” value in data set [4] was “impaired; also recorded: selectively impairs”. Further, the “effect on the VP16 activation domain” value in data set [5] is given as “much milder effects”. The “Kd of the wrenchnolol-Sur-2 interaction” value in data set [6] is on record as “low μM range”. Further, the “expression of Her2 protein” value in data set [7] is recorded as “reduces; also recorded: inhibition of Her2 protein expression”. For the same molecule, in [8], the “solubility in neutral aqueous solution” value is roughly 1000 µM.
With `O=C(O)CCCC[C@@H]1SC[C@@H]2NC(=O)N[C@@H]21` [Compound 13], in data set [9], the “retention of Sur-2 protein on the affinity column” value is reported as “no Sur-2 protein was detected”.
Turning to “ESX129-145: 17-aa segment of the ESX activation domain (TSSSSDELSWIIELLEK; UniProt P78545 129-145, looked up, fragment)”, the “peptide-mediated cell death in Her2-transfected MCF7 cells” value in [10] is “resistant”.

The values above are taken from US7449480B2, “Small molecule inhibitors of HER2 expression” (Baylor College of Medicine, priority 2002, dated 2008).
